Results: ChEMBL document CHEMBL4477195, “Bridged Epipolythiodiketopiperazines from Penicillium raciborskii, an Endophytic Fungus of Rhododendron tomentosum Harmaja” (2016)
Active and inactive are the calls of the source. The calls are words filed in the database; no cut-off is given here.

Experiments:
[1] = test system: Verticillium dahliae; assay: Antifungal activity against Verticillium dahliae assessed as fungal growth inhibition at 0.76 mM incubated in dark for 48 hrs by microspectrophotometric analysis; type: functional, organism-based
[2] = test system: Verticillium dahliae; assay: Antifungal activity against Verticillium dahliae assessed as fungal growth inhibition at 10 to 400 ug/mL incubated in dark for 48 hrs by microspectrophotometric analysis; type: functional
[3] = test system: Botrytis cinerea; assay: Antifungal activity against Botrytis cinerea assessed as fungal growth inhibition at 0.76 mM incubated in dark for 48 hrs by microspectrophotometric analysis; type: functional, organism-based
[4] = test system: Verticillium dahliae; assay: Antifungal activity against Verticillium dahliae assessed as fungal growth inhibition at 0.38 mM incubated in dark for 48 hrs by microspectrophotometric analysis; type: functional, organism-based
[5] = test system: Botrytis cinerea; assay: Antifungal activity against Botrytis cinerea assessed as fungal growth inhibition at 10 to 400 ug/mL incubated in dark for 48 hrs by microspectrophotometric analysis; type: functional
[6] = test system: Fusarium oxysporum; assay: Antifungal activity against Fusarium oxysporum assessed as fungal growth inhibition at 0.38 mM incubated in dark for 48 hrs by microspectrophotometric analysis; type: functional, organism-based
[7] = test system: Botrytis cinerea; assay: Antifungal activity against Botrytis cinerea assessed as fungal growth inhibition at 0.38 mM incubated in dark for 48 hrs by microspectrophotometric analysis; type: functional, organism-based
[8] = test system: Fusarium oxysporum; assay: Antifungal activity against Fusarium oxysporum assessed as fungal growth inhibition at 0.76 mM incubated in dark for 48 hrs by microspectrophotometric analysis; type: functional, organism-based

COc1ccc(C2SSS[C@@]34C[C@]5(O)[C@H](O)C=C[C@@H](O)[C@@H]5ON3C(=O)[C@@H]2N(C)C4=O)c(O)c1OC (stereo partly drawn)
growth inhibition (GI) [1]: Active
growth inhibition (GI) [2]: 45%
growth inhibition (GI) [3]: Active
growth inhibition (GI) [4]: Active
growth inhibition (GI) [5]: 57%
growth inhibition (GI) [6]: Active
growth inhibition (GI) [7]: Active
growth inhibition (GI) [8]: Active
